Like-named read-outs stand apart in the source and are kept apart here.
Legend:
[1] = test system: brain hemorrhage induced by 1 μM atorvastatin in zebrafish; test: Atorvastatin-induced brain hemorrhage (ICH) model in zebrafish, rescue by drugs; conditions: for Efficacy on atorvastatin Hemorrhage: ATV model induced by 1 μmol/L atorvastatin, inhibition of hemorrhage
Description: Zebrafish were set up the night before the experiment day. In the morning of the experimental day, we put breeders together for mating and fertilization. 6 hours post-fertilization (hpf), statins was added into a 96-well plate holding 100 μl water with 7 to 8 fish eggs in each well, which was optimized through a serial pilot experiments. Statins were dissolved in DMSO and diluted with 0.5% of DMSO water into a working solution. 100 μl water containing 0.5% of DMSO was the medium for all wells in the final assessment.
For screening NIH compound libraries, 5 μM of each of the drugs from the library was added at 24 hpf into wells containing fish eggs treated with 1 μM ATV since 6 hpf. Hemorrhage positive control wells were treated with ATV but not treated with any drugs. Negative controls were not treated with any chemicals (fish with 0.5% of DMSO water). Geranylgeranyl pyrophosphate (GGPP, 4 mg/L) was used as positive rescue control.
Brain hemorrhage was assessed 72 hpf (66 hours after addition of statins) using stereomicroscopy by two observers. Percentage of brain hemorrhage was used as final readout. Compounds showing more than 70% of rescue of the brain hemorrhages in the initial test were re-tested to generate a final list of hits from the library.
All subsequent EC50 assays of positive compounds were performed with protocols established and optimized during the screening.

[2] = test system: bbh mutant zebrafish (mutation in βPix), spontaneous ICH; test: bbh (bubblehead) mutant genetic model of brain hemorrhage; type: in vivo, zebrafish (Danio rerio); conditions: for EC50: read-out: EC50 to rescue brain hemorrhage, bbh Mutant Model
From the text: A specific zebrafish line with a gene mutation called bubblehead (bbh) was used. This line has spontaneous ICH. Bubblehead phenotype is caused by a mutation in βPix. Adult homozygous zebrafish were viable and fertile. […] More than 85% of zebrafish larvae display an ICH phenotype.

[3] = test system: β-Pix MO-induced hemorrhage in zebrafish; test: βPix morpholino-induced hemorrhage in zebrafish, rescue by drugs; type: in vivo, zebrafish (Danio rerio); conditions: for Efficacy on β-Pix MO Hemorrhage: inhibition of β-Pix MO-induced hemorrhage
Description: (§1) Morpholino oligonucleotides (MOs) were custom-synthesized by Gene Tools (Carvalis, Oreg.); their sequences are shown in Table 1.
(§2) Danieau buffer (58 mM NaCl, 0.7 mM KCl, 0.4 mM MgSO4, 0.6 mM Ca(NO3)2, 5.0 mM HEPES, pH 7.6) was used to dilute the MO solutions to 0.2 mM final concentration. Individual wells were placed on a 1.0% agarose plate, in which the embryos were positioned. Afterwards, the MO solution was injected through the cell yolk into embryos of 1 to 4 cell-stage. The injected quantities varied from 0.5 to 15 ng.
(§3) bbhm292 zebrafish mutant has a hypomorphic mutation in βPix, resulting in ICH/BMH and hydrocephalus. The MO is βPixexon6-MO which blocks splicing of exon 6 and results in premature protein termination. […] Higher doses of βPixexon6-MO (up to 8 ng) result in a lack of blood circulation, and therefore no ICH/BMH was detected. Injection of 8 ng results in complete missplicing of βPix and therefore a null phenotype, whereas lower doses retain some normally spliced βPix. The βPixexon6-MO sequence is 5′-[…]-3′ [SEQ ID NO: 1]. 3Pixexon6-MO was injected into the embryos at the 1-2 cell stage, and compounds were added 12 hpf.
(§4) The first three morpholino pairs were good for the efficacy study. Efficacy assays were performed using Artemether (ARM, Sigma) and artemesunate (ART, GMP). […] Treating these morphants with the drugs rescued the ICH phenotype.

zebrafish larvae [4] = test: Toxicity assay in zebrafish larvae (heart beat, blood flow, cardiac edema); type: in vivo, zebrafish (Danio rerio)
Description: The embryos were collected and distributed into a 96-well plate in 0.5% DMSO, similar to efficacy assays. […] Heart beat and blood flow were ranked from 3 (normal heart beat or blood flow) to 0 (no heart beat or blood flow). Cardiac edema was ranked from 0 (normal heart without edema) to −3 (severe cardiac edema). […] The ratio of TC50/EC50 was calculated in each case.
Heart beat and blood flow were ranked from 3 (normal heart beat or blood flow) to 0 (no heart beat or blood flow). Cardiac edema was ranked from 0 (normal heart without edema) to −3 (severe cardiac edema). […] Data is expressed as mean±SEM from 3 experiments.

[5] = test system: Hmgcrb - splice morpholino-induced hemorrhage in zebrafish; test: Hmgcrb morpholino-induced hemorrhage in zebrafish, rescue by drugs; type: in vivo, zebrafish (Danio rerio)
Description: as §2, §4

[6] = test system: Cdh5 - exon2 morpholino-induced hemorrhage in zebrafish; test: Cdh5 (VE-cadherin) morpholino-induced hemorrhage in zebrafish, rescue by drugs; type: in vivo, zebrafish (Danio rerio); conditions: result in words, no EC50
Description: as §2
Panels A & B: Stable EC junctions are maintained by a Cdc42-dependent and VE-cadherin-mediated cell-cell adhesion. VE cadherins are found on the surfaces of EC cell-cell junctions. VE-cadherins are associated with β- and α-catenins at their cytoplasmic domains, which connect them to the actin-based cytoskeleton (blue circles). Cdc42 belongs to the Rho-family of small guanosine triphosphatases (GTPases), which are the main regulators of VE-cadherin-based cell-cell adhesion. The functions of hmgcrb, βPix, and pak2a in regulating junctional stability in zebrafish are shown. HNGCR mediated GGPP biosynthesis regulates Cdc42 prenylation. βPix is a GEF that increases CDC42 affinity for GTP. Pak2 is an effector of Cdc42, which regulates actin filament organization.
Suppression of VE-cadherin induces hemorrhage.

zebrafish larvae [7] = test: Morpholino injection to induce hemorrhage in zebrafish larvae; type: in vivo; conditions: for Hemorrhage: at optimum injected amount, 3 dpf larvae, n = 150-250 per condition
Description: as §1, §2, §3
Another MO was designed to block the splice-donor sites after exon 8 in pak2a. Pak2a is the gene mutated in the rhdmi149 zebrafish mutant that develops ICH/BMH. The pak2a-MO sequence is 5′-[…]-3′ (SEQ ID NO: 2). Eight pg of pak2a-MO was injected per embryo, resulting in […] of embryos with ICH/BMH with low mortality (FIGS. 12 and 14).
Next, optimum amount of each morpholino was determined. The goal was to induce an acceptable percentage of hemorrhage (ideally between 40-80%), without having toxicity from morpholino injection.

[8] = test system: Pak2a - exon8 morpholino-induced hemorrhage in zebrafish; test: Pak2a morpholino-induced hemorrhage in zebrafish, rescue by drugs; type: in vivo, zebrafish (Danio rerio); conditions: result in words
Description: as §2
Another MO was designed to block the splice-donor sites after exon 8 in pak2a. Pak2a is the gene mutated in the rhdmi149 zebrafish mutant that develops ICH/BMH.
Efficacy assays were performed using Artemether (ARM, Sigma) and artemesunate (ART, GMP).

[9] = drug from Sequoia Research (UK)
[10] = drug from Sigma, 3 dpf larvae, drug added 24 hpf
[11] = n = 15-20 larvae per condition, 1-3 times per compound

Molecule	Efficacy on atorvastatin Hemorrhage [1]	Efficacy on β-Pix MO Hemorrhage [3]	TC50 (Blood flow) (zebrafish larvae [4]; [9]) [nmol/L]	TC50 (Edema) (zebrafish larvae [4]; [9]) [nmol/L]	TC50 (Blood flow) (zebrafish larvae [4]; [10]) [nmol/L]	TC50 (Edema) (zebrafish larvae [4]; [10]) [nmol/L]	Rescue of hemorrhage induced by Cdh5 - exon2 morpholino [6]	EC50 [2, 11] [nM]	Hemorrhage (zebrafish larvae [7])	further results
C[C@H]1[C@@H](O)O[C@@H]2O[C@]3(C)CC[C@H]4[C@H](C)CC[C@@H]1[C@@]24OO3 [Dihydroartemisinin]	+++++ (One + sign represents 20% inhibition on 1 μmol/L ATV or β-Pix MO-induced hemorrhage.)	+++++ (One + sign represents 20% inhibition on 1 μmol/L ATV or β-Pix MO-induced hemorrhage.)	979.5	1021	890	748.5	–	–	–	EC50 ([1]; Danio rerio, read-out: EC50 (in nmol/L) on atorfvastatin model (μmol/L)): 67 nmol/L; EC50 ([1]; Danio rerio, read-out: EC50 to rescue brain hemorrhage, Statin Model): 80.8 nmol/L; Result in the ATV zebrafish model ([1]; derivatives acquired from Sequoia Research Products): tested positive; EC50 ([2]; Danio rerio): 107 nM
C[C@H]1[C@H](OC(=O)CCC(=O)O)O[C@@H]2O[C@@]3(C)CC[C@H]4[C@H](C)CC[C@@H]1[C@@]24OO3 [Artesunate]	–	–	1036	937.8	741.5	5367	Rescue effect	127	–	EC50 ([5]; Table 6): 167 ± 9.3 nM; EC50 ([1]; read-out: EC50 to rescue brain hemorrhage, Statin Model, Table 4, n = 15-20 larvae per condition, three times per compound): 182 nmol/L; EC50 ([3]; Table 6, read-out: EC50 to rescue hemorrhage induced by βPix - exon6 morpholino): 95.6 ± 27.9 nM; TC50 (Blood flow) (zebrafish larvae [4]; GMP-Artesunate): 794.4 nmol/L; TC50 (Edema) (zebrafish larvae [4]; GMP-Artesunate): 3196 nmol/L; TC50 (Heart beat) (zebrafish larvae [4]; GMP-Artesunate): 2.525 µM; TC50 (Heart beat) (zebrafish larvae [4]; [9]): 9.539 µM; TC50 (Heart beat) (zebrafish larvae [4]; [10]): 8.884 µM
Cdh5 - exon2: morpholino 5′-TACAAGACCGTCTACCTTTCCAATC-3′ (antisense; all phosphorodiamidate morpholino (PMO))	–	–	–	–	–	–	–	–	39.4%	Cardiac Edema (zebrafish larvae [7]; at optimum injected amount (1.0 ng)): 35.0% (Cardiac Edema)
Hmgcrb - splice: morpholino 5′-AACTGCATTCATAAACTCACCCAGT-3′ (all phosphorodiamidate morpholino (PMO))	–	–	–	–	–	–	–	–	67.9%	–
Artesunate	+++++ (One + sign represents 20% inhibition on 1 μmol/L ATV or β-Pix MO-induced hemorrhage.)	+++++ (One + sign represents 20% inhibition on 1 μmol/L ATV or β-Pix MO-induced hemorrhage.)	–	–	–	–	rescue was observed	140	–	ICH/BMH after MO-mediated inhibition of hmgcrb ([5]; result in words): prevented; EC50 ([1]; read-out: EC50 (in nmol/L) on atorfvastatin model (μmol/L), Table 3, 1 μmol/L atorvastatin, 3 to 4 experiments): 211 nmol/L; Rescue of hemorrhage / ICH phenotype in bbh mutants ([2]; result in words): rescues the ICH phenotype; ICH/BMH after treatment with pak2a-MO [8]: dose-dependently reduced; ICH in βPixexon6-MO injected embryos ([3]; 5 μmol/L, compounds added 12 hpf): prevented ICH
GGTasel: morpholino 5′-CACGCGGTGTGTGGACTCACGGTCA-3′ (all phosphorodiamidate morpholino (PMO))	–	–	–	–	–	–	–	–	11.4% (Faint)	–

Source: patent publication US10292991B2, “Small molecule therapeutic compounds that reduce the incidence of intracerebral hemorrhage and brain microhemorrhages” (St. Michaels Hospital, priority 2016, dated 2019)
